Measured values: ChEMBL document CHEMBL1154277, “Discovery of N-substituted pyridinones as potent and selective inhibitors of p38 kinase” (Bioorg Med Chem Lett, 2009)

Experiments:
[1] = target: Homeodomain-interacting protein kinase 4 (Homo sapiens) (UniProt Q8NE63); assay: Inhibition of HIPK4 at 10 uM
[2] = target: Tyrosine-protein kinase ABL1 (Homo sapiens) (UniProt P00519); assay: Inhibition of ABL1 at 10 uM
[3] = target: Casein kinase I isoform delta (Homo sapiens) (UniProt P48730); assay: Inhibition of CSNK1D at 10 uM
[4] = target: Focal adhesion kinase 1 (Homo sapiens) (UniProt Q05397); assay: Inhibition of FAK at 10 uM
[5] = target: Insulin receptor-related protein (Homo sapiens) (UniProt P14616); assay: Inhibition of INSRR at 10 uM
[6] = target: G protein-coupled receptor kinase 3 (Homo sapiens) (UniProt P35626); assay: Inhibition of GRK3 at 10 uM
[7] = Inhibition of SRC N1 at 10 uM
[8] = target: Mast/stem cell growth factor receptor Kit (Homo sapiens) (UniProt P10721); assay: Inhibition of KIT at 10 uM
[9] = system: Proto-oncogene tyrosine-protein kinase receptor Ret (Homo sapiens), P07949 [V804L]; assay: Inhibition of RET V804L (mutant) at 10 uM
[10] = target: Ephrin type-B receptor 1 (Homo sapiens) (UniProt P54762); assay: Inhibition of EPHB1 at 10 uM
[11] = target: Dual specificity tyrosine-phosphorylation-regulated kinase 1A (Homo sapiens) (UniProt Q13627); assay: Inhibition of DYRK1A at 10 uM
[12] = target: Dual specificity mitogen-activated protein kinase kinase 2 (Homo sapiens) (UniProt P36507); assay: Inhibition of MEK2 at 10 uM
[13] = target: Serine/threonine-protein kinase PLK2 (Homo sapiens) (UniProt Q9NYY3); assay: Inhibition of PLK2 at 10 uM
[14] = target: RAC-alpha serine/threonine-protein kinase (Homo sapiens) (UniProt P31749); assay: Inhibition of AKT1 at 10 uM
[15] = target: Ephrin type-B receptor 2 (Homo sapiens) (UniProt P29323); assay: Inhibition of EPHB2 at 10 uM
[16] = target: Dual specificity tyrosine-phosphorylation-regulated kinase 3 (Homo sapiens) (UniProt O43781); assay: Inhibition of DYRK3 at 10 uM
[17] = target: Casein kinase I isoform alpha (Homo sapiens) (UniProt P48729); assay: Inhibition of CSNK1A1 at 10 uM
[18] = target: Tyrosine-protein kinase JAK2 (Homo sapiens) (UniProt O60674); assay: Inhibition of JAK2 at 10 uM
[19] = target: Ephrin type-A receptor 1 (Homo sapiens) (UniProt P21709); assay: Inhibition of EPHA1 at 10 uM
[20] = target: Serine/threonine-protein kinase MRCK beta (Homo sapiens) (UniProt Q9Y5S2); assay: Inhibition of MRCKbeta at 10 uM
[21] = target: High affinity nerve growth factor receptor (Homo sapiens) (UniProt P04629); assay: Inhibition of TRKA at 10 uM
[22] = target: Tyrosine-protein kinase receptor TYRO3 (Homo sapiens) (UniProt Q06418); assay: Inhibition of RSE at 10 uM
[23] = target: Dual specificity protein kinase CLK3 (Homo sapiens) (UniProt P49761); assay: Inhibition of CLK3 at 10 uM
[24] = target: Serine/threonine-protein kinase N1 (Homo sapiens) (UniProt Q16512); assay: Inhibition of PRK1 at 10 uM
[25] = target: Protein kinase C iota type (Homo sapiens) (UniProt P41743); assay: Inhibition of PKCiota at 10 uM
[26] = target: Cyclin-dependent kinase 2/cyclin A (Homo sapiens) (UniProt P24941+P20248+P78396); assay: Inhibition of CDK2/cyclinA at 10 uM; type: protein-complex assay
[27] = target: Protein-tyrosine kinase 6 (Homo sapiens) (UniProt Q13882); assay: Inhibition of Brk at 10 uM
[28] = target: Serine/threonine-protein kinase MRCK alpha (Homo sapiens) (UniProt Q5VT25); assay: Inhibition of MRCKalpha at 10 uM
[29] = system: Tyrosine-protein kinase ABL1 (Homo sapiens), P00519 [G250E]; assay: Inhibition of ABL1 G250E (mutant) at 10 uM
[30] = target: Interleukin-1 receptor-associated kinase 4 (Homo sapiens) (UniProt Q9NWZ3); assay: Inhibition of IRAK4 at 10 uM
PBMC = assay: Antiinflammatory activity against human PBMC assessed as inhibition of LPS-induced TNFalpha release; type: functional, cell-based
[31] = target: Tyrosine-protein kinase CSK (Homo sapiens) (UniProt P41240); assay: Inhibition of CSK at 10 uM
[32] = target: Glycogen synthase kinase-3 beta (Homo sapiens) (UniProt P49841); assay: Inhibition of GSK3-beta at 10 uM
[33] = target: Macrophage-stimulating protein receptor (Homo sapiens) (UniProt Q04912); assay: Inhibition of RON at 10 uM
[34] = target: Ephrin type-A receptor 4 (Homo sapiens) (UniProt P54764); assay: Inhibition of EPHA4 at 10 uM
[35] = target: Calcium/calmodulin-dependent protein kinase type II subunit alpha (Homo sapiens) (UniProt Q9UQM7); assay: Inhibition of CAMK2alpha at 10 uM
[36] = target: Tyrosine-protein kinase Fer (Homo sapiens) (UniProt P16591); assay: Inhibition of FER at 10 uM
[37] = target: Tyrosine-protein kinase Blk (Homo sapiens) (UniProt P51451); assay: Inhibition of BLK at 10 uM
[38] = target: Testis-specific serine/threonine-protein kinase 1 (Homo sapiens) (UniProt Q9BXA7); assay: Inhibition of TSSK1 at 10 uM
[39] = target: Leucine-rich repeat serine/threonine-protein kinase 2 (Homo sapiens) (UniProt Q5S007); assay: Inhibition of LRRK2 at 10 uM
[40] = target: Aurora kinase A (Homo sapiens) (UniProt O14965); assay: Inhibition of Aurora A at 10 uM
[41] = target: BDNF/NT-3 growth factors receptor (Homo sapiens) (UniProt Q16620); assay: Inhibition of TRKB at 10 uM
[42] = system: Platelet-derived growth factor receptor alpha (Homo sapiens), P16234 [V561D]; assay: Inhibition of PDGFRalpha V561D (mutant) at 10 uM
[43] = target: Ephrin type-A receptor 3 (Homo sapiens) (UniProt P29320); assay: Inhibition of EPHA3 at 10 uM
[44] = target: Activin receptor type-1B (Homo sapiens) (UniProt P36896); assay: Inhibition of ALK4 at 10 uM
[45] = target: Casein kinase II subunit alpha (Homo sapiens) (UniProt P68400); assay: Inhibition of CK2alpha1 at 10 uM
[46] = target: Ephrin type-B receptor 4 (Homo sapiens) (UniProt P54760); assay: Inhibition of EPHB4 at 10 uM
[47] = target: Serine/threonine-protein kinase MARK2 (Homo sapiens) (UniProt Q7KZI7); assay: Inhibition of MARK2 at 10 uM

Chain of Activin receptor type-1B (Homo sapiens) (P36896 whole entry): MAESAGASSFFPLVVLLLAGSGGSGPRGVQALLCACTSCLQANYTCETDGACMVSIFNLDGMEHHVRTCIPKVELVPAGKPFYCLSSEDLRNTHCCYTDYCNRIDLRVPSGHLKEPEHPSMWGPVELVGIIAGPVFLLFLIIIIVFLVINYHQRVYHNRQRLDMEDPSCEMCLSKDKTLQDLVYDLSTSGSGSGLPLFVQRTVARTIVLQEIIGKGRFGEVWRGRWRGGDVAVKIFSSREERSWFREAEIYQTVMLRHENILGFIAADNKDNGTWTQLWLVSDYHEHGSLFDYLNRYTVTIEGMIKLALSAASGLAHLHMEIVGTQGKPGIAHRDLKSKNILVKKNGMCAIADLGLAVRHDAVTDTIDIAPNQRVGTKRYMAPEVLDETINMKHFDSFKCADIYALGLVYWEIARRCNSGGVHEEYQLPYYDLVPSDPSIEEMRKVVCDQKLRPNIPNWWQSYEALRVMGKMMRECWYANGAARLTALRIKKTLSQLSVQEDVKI
Chain of Ephrin type-B receptor 2 (Homo sapiens) (P29323 whole entry): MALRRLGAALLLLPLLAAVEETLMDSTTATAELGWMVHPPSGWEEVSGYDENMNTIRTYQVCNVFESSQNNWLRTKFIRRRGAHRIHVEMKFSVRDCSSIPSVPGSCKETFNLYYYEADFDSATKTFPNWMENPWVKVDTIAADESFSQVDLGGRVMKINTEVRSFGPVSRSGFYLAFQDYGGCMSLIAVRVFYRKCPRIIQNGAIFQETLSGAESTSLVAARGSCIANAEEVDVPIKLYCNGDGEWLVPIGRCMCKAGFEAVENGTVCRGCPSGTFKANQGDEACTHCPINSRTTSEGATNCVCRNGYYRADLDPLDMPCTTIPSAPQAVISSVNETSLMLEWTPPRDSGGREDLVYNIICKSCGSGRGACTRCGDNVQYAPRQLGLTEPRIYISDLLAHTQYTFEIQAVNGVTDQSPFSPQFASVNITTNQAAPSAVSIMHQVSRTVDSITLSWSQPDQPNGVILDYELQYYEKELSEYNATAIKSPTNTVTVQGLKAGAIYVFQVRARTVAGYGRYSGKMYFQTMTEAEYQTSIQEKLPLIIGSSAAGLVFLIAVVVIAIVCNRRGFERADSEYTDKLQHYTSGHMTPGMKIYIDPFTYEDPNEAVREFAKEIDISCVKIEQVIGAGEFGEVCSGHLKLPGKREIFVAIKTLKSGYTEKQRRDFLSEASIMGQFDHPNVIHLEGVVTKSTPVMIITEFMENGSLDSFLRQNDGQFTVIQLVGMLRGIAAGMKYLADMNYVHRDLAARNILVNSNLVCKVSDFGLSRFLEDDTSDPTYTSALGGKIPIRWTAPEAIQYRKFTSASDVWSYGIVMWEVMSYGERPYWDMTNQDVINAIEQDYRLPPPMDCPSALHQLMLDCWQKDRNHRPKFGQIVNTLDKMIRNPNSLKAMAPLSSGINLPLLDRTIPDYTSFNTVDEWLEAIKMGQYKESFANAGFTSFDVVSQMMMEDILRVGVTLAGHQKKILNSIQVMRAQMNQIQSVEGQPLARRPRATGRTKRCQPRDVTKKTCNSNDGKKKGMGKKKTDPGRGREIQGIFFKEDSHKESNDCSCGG
Chain of Dual specificity tyrosine-phosphorylation-regulated kinase 3 (Homo sapiens) (O43781 whole entry, canonical isoform): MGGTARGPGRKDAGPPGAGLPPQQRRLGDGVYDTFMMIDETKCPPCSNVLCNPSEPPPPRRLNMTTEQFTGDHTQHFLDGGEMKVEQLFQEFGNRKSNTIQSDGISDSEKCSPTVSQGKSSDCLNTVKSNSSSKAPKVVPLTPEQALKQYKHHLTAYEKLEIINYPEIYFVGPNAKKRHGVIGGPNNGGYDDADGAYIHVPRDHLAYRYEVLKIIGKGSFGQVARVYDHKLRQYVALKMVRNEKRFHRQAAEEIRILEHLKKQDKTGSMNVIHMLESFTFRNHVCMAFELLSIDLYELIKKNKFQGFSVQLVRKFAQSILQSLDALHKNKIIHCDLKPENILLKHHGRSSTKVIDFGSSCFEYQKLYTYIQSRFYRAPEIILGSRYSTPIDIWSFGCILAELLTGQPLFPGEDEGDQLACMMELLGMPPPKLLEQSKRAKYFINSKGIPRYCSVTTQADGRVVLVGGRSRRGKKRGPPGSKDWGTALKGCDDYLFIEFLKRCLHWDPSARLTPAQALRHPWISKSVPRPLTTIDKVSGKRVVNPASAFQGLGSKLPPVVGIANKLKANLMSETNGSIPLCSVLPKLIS
Chain of Interleukin-1 receptor-associated kinase 4 (Homo sapiens) (Q9NWZ3 whole entry): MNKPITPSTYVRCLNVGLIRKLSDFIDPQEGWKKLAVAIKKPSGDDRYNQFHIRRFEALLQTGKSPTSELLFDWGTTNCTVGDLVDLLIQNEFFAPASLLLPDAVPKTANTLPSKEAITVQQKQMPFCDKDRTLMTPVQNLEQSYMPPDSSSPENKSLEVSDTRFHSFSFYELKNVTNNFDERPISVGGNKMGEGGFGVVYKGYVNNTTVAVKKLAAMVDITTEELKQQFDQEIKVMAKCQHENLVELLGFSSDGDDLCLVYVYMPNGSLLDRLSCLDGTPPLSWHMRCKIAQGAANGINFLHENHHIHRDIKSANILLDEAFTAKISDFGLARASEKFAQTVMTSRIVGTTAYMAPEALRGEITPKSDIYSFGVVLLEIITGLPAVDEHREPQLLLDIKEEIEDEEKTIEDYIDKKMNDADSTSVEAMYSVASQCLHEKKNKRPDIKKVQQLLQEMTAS
Chain of Dual specificity mitogen-activated protein kinase kinase 2 (Homo sapiens) (P36507 whole entry): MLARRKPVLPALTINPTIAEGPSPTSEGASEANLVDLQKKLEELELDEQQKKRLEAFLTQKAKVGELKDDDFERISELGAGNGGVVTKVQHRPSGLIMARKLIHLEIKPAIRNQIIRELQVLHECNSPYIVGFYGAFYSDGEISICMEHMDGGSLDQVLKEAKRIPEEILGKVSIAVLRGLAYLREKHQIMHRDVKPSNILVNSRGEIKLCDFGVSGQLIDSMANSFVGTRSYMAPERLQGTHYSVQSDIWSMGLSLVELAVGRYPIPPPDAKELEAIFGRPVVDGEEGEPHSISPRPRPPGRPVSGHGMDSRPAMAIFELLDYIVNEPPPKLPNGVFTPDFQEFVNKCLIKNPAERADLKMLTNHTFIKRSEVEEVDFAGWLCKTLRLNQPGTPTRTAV
Chain of Ephrin type-A receptor 1 (Homo sapiens) (P21709 whole entry): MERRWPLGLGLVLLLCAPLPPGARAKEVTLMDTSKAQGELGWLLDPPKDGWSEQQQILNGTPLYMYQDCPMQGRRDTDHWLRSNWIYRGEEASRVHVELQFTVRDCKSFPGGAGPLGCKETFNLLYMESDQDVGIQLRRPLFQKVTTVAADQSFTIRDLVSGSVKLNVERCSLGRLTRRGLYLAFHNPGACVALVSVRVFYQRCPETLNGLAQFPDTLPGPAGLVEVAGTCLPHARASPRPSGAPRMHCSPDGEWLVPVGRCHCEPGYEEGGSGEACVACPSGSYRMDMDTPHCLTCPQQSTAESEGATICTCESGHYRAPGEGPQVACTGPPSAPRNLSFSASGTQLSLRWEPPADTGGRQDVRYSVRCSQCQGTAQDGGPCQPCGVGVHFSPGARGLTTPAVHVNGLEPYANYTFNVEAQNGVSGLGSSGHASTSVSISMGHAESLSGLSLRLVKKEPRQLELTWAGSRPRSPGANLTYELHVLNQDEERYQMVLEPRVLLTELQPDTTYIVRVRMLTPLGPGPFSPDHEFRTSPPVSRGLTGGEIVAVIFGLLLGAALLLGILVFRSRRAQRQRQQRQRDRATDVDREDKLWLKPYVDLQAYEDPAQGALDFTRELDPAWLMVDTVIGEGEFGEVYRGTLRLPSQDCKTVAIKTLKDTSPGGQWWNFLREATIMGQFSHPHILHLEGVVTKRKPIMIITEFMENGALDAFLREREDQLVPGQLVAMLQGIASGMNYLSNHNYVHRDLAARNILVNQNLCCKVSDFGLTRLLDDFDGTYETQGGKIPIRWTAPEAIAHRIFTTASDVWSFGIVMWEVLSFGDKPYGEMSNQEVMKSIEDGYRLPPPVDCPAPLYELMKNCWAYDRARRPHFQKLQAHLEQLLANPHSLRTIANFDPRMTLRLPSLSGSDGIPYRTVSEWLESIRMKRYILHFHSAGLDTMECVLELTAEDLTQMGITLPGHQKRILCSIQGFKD
Chain of BDNF/NT-3 growth factors receptor (Homo sapiens) (Q16620 32-822 limits assumed): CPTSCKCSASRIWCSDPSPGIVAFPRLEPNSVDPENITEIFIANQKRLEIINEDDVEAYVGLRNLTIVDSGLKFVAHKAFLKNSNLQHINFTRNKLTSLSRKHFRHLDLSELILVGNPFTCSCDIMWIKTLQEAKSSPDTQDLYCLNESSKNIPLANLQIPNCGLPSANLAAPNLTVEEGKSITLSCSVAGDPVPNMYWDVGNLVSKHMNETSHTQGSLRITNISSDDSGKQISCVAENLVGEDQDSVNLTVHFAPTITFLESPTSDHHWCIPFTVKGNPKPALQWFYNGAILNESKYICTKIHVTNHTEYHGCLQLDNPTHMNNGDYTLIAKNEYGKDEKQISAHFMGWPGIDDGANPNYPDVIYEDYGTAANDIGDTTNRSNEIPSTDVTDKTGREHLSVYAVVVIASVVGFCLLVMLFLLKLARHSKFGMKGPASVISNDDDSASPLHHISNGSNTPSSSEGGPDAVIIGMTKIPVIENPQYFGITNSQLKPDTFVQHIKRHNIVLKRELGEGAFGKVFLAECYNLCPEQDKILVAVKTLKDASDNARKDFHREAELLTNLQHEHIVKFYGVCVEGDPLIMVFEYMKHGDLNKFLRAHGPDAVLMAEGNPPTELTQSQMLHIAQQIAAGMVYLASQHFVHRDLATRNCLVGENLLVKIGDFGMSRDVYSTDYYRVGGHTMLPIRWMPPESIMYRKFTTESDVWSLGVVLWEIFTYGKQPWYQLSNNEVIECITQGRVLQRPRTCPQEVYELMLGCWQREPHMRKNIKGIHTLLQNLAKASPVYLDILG

inhibition [1]: < 50%
inhibition [2]: < 50%
inhibition [3]: < 50%
inhibition [4]: < 50%
inhibition [5]: < 50%
inhibition [6]: < 50%
inhibition [7]: < 50%
inhibition [8]: < 50%
inhibition [9]: < 50%
inhibition [10]: < 50%
inhibition [11]: < 50%
inhibition [12]: < 50%
inhibition [13]: < 50%
inhibition [14]: < 50%
inhibition [15]: < 50%
inhibition [16]: < 50%
inhibition [17]: < 50%
inhibition [18]: < 50%
inhibition [19]: < 50%
inhibition [20]: < 50%
inhibition [21]: < 50%
inhibition [22]: < 50%
inhibition [23]: < 50%
inhibition [24]: < 50%
inhibition [25]: < 50%
inhibition [26]: < 50%
inhibition [27]: < 50%
inhibition [28]: < 50%
inhibition [29]: < 50%
inhibition [30]: < 50%
inhibition [31]: < 50%
inhibition [32]: < 50%
inhibition [33]: < 50%
inhibition [34]: < 50%
inhibition [35]: < 50%
inhibition [36]: < 50%
inhibition [37]: < 50%
inhibition [38]: < 50%
inhibition [39]: < 50%
inhibition [40]: < 50%
inhibition [41]: < 50%
inhibition [42]: < 50%
inhibition [43]: < 50%
inhibition [44]: < 50%
inhibition [45]: < 50%
inhibition [46]: < 50%
inhibition [47]: < 50%
Compound: Cc1cc(OCc2ccc(F)cc2F)c(Br)c(=O)n1Cc1ccc(CN(C)C)cc1
IC50 (PBMC): 44 nM
